# Measurements published in US20150038464A1, “METHODS OF INCREASING LIGHT RESPONSIVENESS IN A SUBJECT WITH RETINAL DEGENERATION” (The United States Government as represented by the …, priority 2012, published 2015).
# Tests used:
# [1] = test system: P23H rat RGCs; test: Light-evoked responses (intensity-response curves) of retinal ganglion cells recorded extracellularly from isolated P23H rat retina; type: cell-based; conditions: 500 nM JNJ16259685
# Method: Sprague-Dawley (SD) rats (age range 13-44 weeks) and P23H-line 1 homozygous rats (age range 23-42 weeks) were used in this study. Both the SD rats and P23H rats were bred and housed in the same facility. Breeding pairs of SD rats were obtained from Harlan Laboratories (Indianapolis, Ind.). Breeding pairs of P23H-line 1 homozygous rats were generously donated by Dr. Matthew LaVail (University of California San Francisco, Calif.). The room light was kept on a 12 hour light/dark cycle using standard fluorescent lighting. During the light cycle the illumination at the level of the cages was 100-200 lux. All animal care procedures and experimental methods were approved by the appropriate Institutional Animal Care and Use Committee.
# On the day of an experiment, a rat was euthanized with sodium pentobarbital (150 mg/kg, i.p.), and the eyes were removed and hemisected under normal room light. […]
# Light from a mercury arc lamp illuminated an aperture that was focused on the retina from above through the 4× objective of the microscope. The image produced on the retina was either a 250-μm or 1.5-mm diameter spot, which was centered on the recorded RGC. […] The intensity of the unattenuated light stimulus on the retina measured with a spectroradiometer (ILT900-R, International Light Technologies, Peabody, Mass.) was 8.5×10^17 photons/cm^2/s. […]
# [2] = test system: P23H rat RGCs; test: as above; type: cell-based; conditions: 16 P23H rat RGCs, 500 nM JNJ16259685
compound,measurement,setting,value
"CO[C@H]1CC[C@@H](C(=O)c2ccc3nc4c(cc3c2)CCCO4)CC1 [JNJ16259685, 3,4-dihydro-2H-pyranol[2,3-b]quinolin-7-yl-(cis-4-methoxycyclohexyl)-methanone]",average increase in light sensitivity,"[1]; 16 P23H rat RGCs (15 ON-center, one OFF-center)",0.56 log units
same,increase in maximum peak response,"[1]; 16 P23H rat RGCs, P=0.007",9.9%
same,dynamic operating range with drug,"[2]; mean±SD, before drug 0.89±0.41",1.05±0.42 log unit
same,maximum peak response with drug,"[2]; mean±SD, before drug 162±65",178±64 spikes/s
same,factor by which the light the cells responded to was less intense than without drug,[2],~4 fold
same,increase in dynamic operating range,[2]; not significant (P=0.239),18%
